Measured values taken from patent US7932262B2 (Novartis AG, priority 2006, dated 2011).
pEC50, pIC50: −log10 of the molar value.

What was measured:
[1] = molecular target: T1, PDK1 kinase (Homo sapiens, UniProt O15530); assay: PDK1 Kinase Alpha Screen Assay; format: biochemical; settings: PDK1 Kinase Alpha Screen Assay; read-out: PDK1 IC50
T1 sequence (O15530 1-556): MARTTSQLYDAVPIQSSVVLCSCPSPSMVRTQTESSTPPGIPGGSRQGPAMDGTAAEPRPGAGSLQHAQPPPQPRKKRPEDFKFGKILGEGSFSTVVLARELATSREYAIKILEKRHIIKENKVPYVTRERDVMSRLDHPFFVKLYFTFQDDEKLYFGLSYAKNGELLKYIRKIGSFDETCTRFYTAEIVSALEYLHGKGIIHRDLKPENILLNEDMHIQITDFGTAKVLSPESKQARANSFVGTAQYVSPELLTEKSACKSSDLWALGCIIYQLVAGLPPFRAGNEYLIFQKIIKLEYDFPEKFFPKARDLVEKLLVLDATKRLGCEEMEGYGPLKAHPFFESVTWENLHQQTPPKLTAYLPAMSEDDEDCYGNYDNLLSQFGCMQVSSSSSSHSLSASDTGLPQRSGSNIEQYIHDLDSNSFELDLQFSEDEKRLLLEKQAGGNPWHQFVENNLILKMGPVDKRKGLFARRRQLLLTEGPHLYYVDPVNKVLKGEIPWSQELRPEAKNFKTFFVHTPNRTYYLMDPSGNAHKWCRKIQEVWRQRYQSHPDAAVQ
How it was run: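 Detection used AlphaScreen: streptavidin donor and protein A acceptor beads (25 μg/ml each) bridged by a phospho-(Ser/Thr) PKA substrate antibody binding phosphorylated peptide. Reaction: biotin-PDK1-4 peptide (50 nM), ATP (10 uM), PDK1 in pH 7.5 Tris/MgCl2/DTT buffer, 3-18 hours, EDTA-stopped.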

[2] = tested on: PC-3 cells; assay: Cell Proliferation Assay (Cell Titer Glo), PC-3 cell line; format: cell-based; settings: Homo sapiens, PC-3, Cell Proliferation Assay, PC3; read-out: CPEC50 PC3
How it was run: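 Cell Titer Glo luminescence, read after fresh medium replaced the dosing medium, gave viability of PC-3 cells plated at 1000 cells/well. Compounds, 1:3 serially diluted in DMSO at 500× and then in medium, were added after 3-5 h adhesion and incubated 3 days at 37° C.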

pIC50 [1] | pEC50 [2] | SMILES
> 5.30 | > 5.30 | CC(C)NC(=O)c1ccc(Nc2ncc3c(Cl)ccc(OC4CCNCC4)c3n2)cc1 [Compound 599, 4-(5-chloro-8-(piperidin-4-yloxy)quinazolin-2-ylamino)-N-isopropylbenzamide]
> 5.30 | > 5.30 | CC(C)NS(=O)(=O)c1ccc(Nc2ncc3c(Cl)ccc(OC4CCNCC4)c3n2)cc1 [Compound 603, 4-(5-chloro-8-(piperidin-4-yloxy)quinazolin-2-ylamino)-N-isopropylbenzenesulfonamide]
> 5.30 | > 5.30 | CC(C)NS(=O)(=O)c1ccc(Nc2ncc3ccc(OC4CCNCC4)cc3n2)cc1 [Compound 607, N-isopropyl-4-(7-(piperidin-4-yloxy)quinazolin-2-ylamino)benzenesulfonamide]
> 5.30 | 5.00 to 5.30 | O=C(c1ccc(Nc2ncc3c(Cl)ccc(OC4CNC4)c3n2)cc1)N1CCOCC1 [Compound 608, (4-(8-(azetidin-3-yloxy)-5-chloroquinazolin-2-ylamino)phenyl)(morpholino)methanone]
> 5.30 | 5.00 to 5.30 | Clc1ccc(OC2CNC2)c2nc(Nc3ccc(N4CCOCC4)cc3)ncc12 [Compound 609, 8-(azetidin-3-yloxy)-5-chloro-N-(4-morpholinophenyl)quinazolin-2-amine]
> 5.30 | 5.00 to 5.30 | CC(C)NC(=O)c1ccc(Nc2ncc3c(Cl)ccc(OC4CNC4)c3n2)cc1 [Compound 612, 4-(8-(azetidin-3-yloxy)-5-chloroquinazolin-2-ylamino)-N-isopropylbenzamide]
> 5.30 | > 5.30 | O=C(NC1CC1)c1ccc(Nc2ncc3c(Cl)ccc(OC4CNC4)c3n2)cc1 [Compound 613, 4-(8-(azetidin-3-yloxy)-5-chloroquinazolin-2-ylamino)-N-cyclopropylbenzamide]
> 5.30 | > 5.30 | CC(C)NS(=O)(=O)c1ccc(Nc2ncc3c(Cl)ccc(OC4CNC4)c3n2)cc1 [Compound 615, 4-(8-(azetidin-3-yloxy)-5-chloroquinazolin-2-ylamino)-N-isopropylbenzenesulfonamide]
> 5.30 | > 5.30 | O=S(=O)(c1cccc(Nc2ncc3c(Cl)ccc(OC4CNC4)c3n2)c1)N1CCOCC1 [Compound 616, 8-(azetidin-3-yloxy)-5-chloro-N-(3-(morpholinosulfonyl)phenyl)quinazolin-2-amine]

Further lines, the molecule ahead of its results:

SMILES | pIC50 [1] | pEC50 [2]
Fc1ccc(Nc2ncc3ccc(OC4CCNCC4)cc3n2)cc1Br [Compound 589, N-(3-bromo-4-fluorophenyl)-7-(piperidin-4-yloxy)quinazolin-2-amine] | > 5.30 | > 5.30
CC(C)NC(=O)c1ccc(Nc2ncc3ccc(OC4CCNCC4)cc3n2)cc1 [Compound 590, N-isopropyl-4-(7-(piperidin-4-yloxy)quinazolin-2-ylamino)benzamide] | > 5.30 | > 5.30
Fc1ccc(Nc2ncc3ccc(OC4CCNCC4)cc3n2)cc1-c1cnoc1 [Compound 592, N-(4-fluoro-3-(isoxazol-4-yl)phenyl)-7-(piperidin-4-yloxy)quinazolin-2-amine] | > 5.30 | 5.00 to 5.30
Fc1cc(Nc2ncc3ccc(OC4CCNCC4)cc3n2)ccc1N1CCOCC1 [Compound 593, N-(3-fluoro-4-morpholinophenyl)-7-(piperidin-4-yloxy)quinazolin-2-amine] | > 5.30 | > 5.30
Clc1cc(Nc2ncc3ccc(OC4CCNCC4)cc3n2)ccc1N1CCOCC1 [Compound 594, N-(3-chloro-4-morpholinophenyl)-7-(piperidin-4-yloxy)quinazolin-2-amine] | > 5.30 | > 5.30
O=C(c1ccc(Nc2ncc3c(Cl)ccc(OC4CCNCC4)c3n2)cc1)N1CCOCC1 [Compound 595, (4-(5-chloro-8-(piperidin-4-yloxy)quinazolin-2-ylamino)phenyl)(morpholino)methanone] | > 5.30 | 5.00 to 5.30
Fc1cc(Nc2ncc3ccc(OC4CCNCC4)cc3n2)ccc1Br [Compound 596, N-(4-bromo-3-fluorophenyl)-7-(piperidin-4-yloxy)quinazolin-2-amine] | > 5.30 | > 5.30
Fc1cc(Nc2ncc3c(Cl)ccc(OC4CCNCC4)c3n2)ccc1N1CCOCC1 [Compound 597, 5-chloro-N-(3-fluoro-4-morpholinophenyl)-8-(piperidin-4-yloxy)quinazolin-2-amine] | > 5.30 | 5.00 to 5.30
Cn1cc(-c2ccc(Nc3ncc4ccc(OC5CCNCC5)cc4n3)cc2F)cn1 [Compound 598, N-(3-fluoro-4-(1-methyl-1H-pyrazol-4-yl)phenyl)-7-(piperidin-4-yloxy)quinazolin-2-amine] | > 5.30 | 5.00 to 5.30
Fc1cccc(Nc2ncc3c(Cl)ccc(OC4CCNCC4)c3n2)c1 [Compound 600, 5-chloro-N-(3-fluorophenyl)-8-(piperidin-4-yloxy)quinazolin-2-amine] | > 5.30 | > 5.30
Clc1ccc(OC2CCNCC2)c2nc(Nc3cccc(N4CCOCC4)c3)ncc12 [Compound 601, 5-chloro-N-(3-morpholinophenyl)-8-(piperidin-4-yloxy)quinazolin-2-amine] | > 5.30 | 5.00 to 5.30
Clc1cc(Nc2ncc3c(Cl)ccc(OC4CCNCC4)c3n2)ccc1N1CCOCC1 [Compound 602] | > 5.30 | > 5.30
O=C(NC1CC1)c1ccc(Nc2ncc3c(Cl)ccc(OC4CCNCC4)c3n2)cc1 [Compound 604, 4-(5-chloro-8-(piperidin-4-yloxy)quinazolin-2-ylamino)-N-cyclopropylbenzamide] | > 5.30 | > 5.30
Clc1ccc(OC2CCNCC2)c2nc(Nc3ccc(N4CCOCC4)cc3)ncc12 [Compound 605, 5-chloro-N-(4-morpholinophenyl)-8-(piperidin-4-yloxy)quinazolin-2-amine] | > 5.30 | 5.00 to 5.30
O=S(=O)(c1ccc(Nc2ncc3c(Cl)ccc(OC4CCNCC4)c3n2)cc1)N1CCOCC1 [Compound 606, 5-chloro-N-(4-(morpholinosulfonyl)phenyl)-8-(piperidin-4-yloxy)quinazolin-2-amine] | > 5.30 | > 5.30
Fc1cc(Nc2ncc3c(Cl)ccc(OC4CNC4)c3n2)ccc1N1CCOCC1 [Compound 610, 8-(azetidin-3-yloxy)-5-chloro-N-(3-fluoro-4-morpholinophenyl)quinazolin-2-amine] | > 5.30 | 5.00 to 5.30
Clc1cc(Nc2ncc3c(Cl)ccc(OC4CNC4)c3n2)ccc1N1CCOCC1 [Compound 611, 8-(azetidin-3-yloxy)-5-chloro-N-(3-chloro-4-morpholinophenyl)quinazolin-2-amine] | > 5.30 | > 5.30
c1cc(N2CCOCC2)ccc1Nc1ncc2ccc(OC3CCNCC3)cc2n1 [Compound 614, N-(4-morpholinophenyl)-7-(piperidin-4-yloxy)quinazolin-2-amine] | > 5.30 | > 5.30
Clc1ccc(OC2CCNCC2)c2nc(Nc3cccc(-c4cc[nH]n4)c3)ncc12 [Compound 617, N-(3-(1H-pyrazol-3-yl)phenyl)-5-chloro-8-(piperidin-4-yloxy)quinazolin-2-amine] | > 5.30 | 5.00 to 5.30
NS(=O)(=O)c1ccc(Nc2ncc3ccccc3n2)cc1 [Compound 618, 4-(quinazolin-2-ylamino)benzenesulfonamide] | > 5.30 | 5.00 to 5.30
